Experiment: xn = mol fraction of the nth substance listed
Conditions: 100 kPa

CC#N + C=C[n+]1ccn(CC(N)=O)c1.O=S(=O)([N-]S(=O)(=O)C(F)(F)F)C(F)(F)F
x2 = 0
Conditions | viscosity [mPa·s]
298.15 K | 0.344
303.15 K | 0.324
308.15 K | 0.308
313.15 K | 0.293
318.15 K | 0.277
328.15 K | 0.246
333.15 K | 0.219

C=C[n+]1ccn(CC(N)=O)c1.O=S(=O)([N-]S(=O)(=O)C(F)(F)F)C(F)(F)F + CC#N
Conditions | electrical conductivity [S/m] | viscosity [mPa·s]
298.15 K, x1 = 0.02 | 2.52 | –
298.15 K, x1 = 0.047 | 3.16 | –
298.15 K, x1 = 0.05 | – | 2.88
298.15 K, x1 = 0.07 | 3.32 | –
298.15 K, x1 = 0.08 | 3.26 | –
298.15 K, x1 = 0.1 | 3.06 | 10.3
298.15 K, x1 = 0.2 | 1.6 | –
298.15 K, x1 = 0.201 | – | 75
298.15 K, x1 = 0.3026 | – | 276
298.15 K, x1 = 0.393 | 0.39 | –
298.15 K, x1 = 0.4011 | – | 810
298.15 K, x1 = 1 | 0.01 | 281
303.15 K, x1 = 0.01 | 1.34 | 0.64
303.15 K, x1 = 0.02 | 2.64 | –
303.15 K, x1 = 0.047 | 3.32 | –
303.15 K, x1 = 0.05 | – | 2.84
303.15 K, x1 = 0.08 | 3.47 | –
303.15 K, x1 = 0.3026 | – | 247
303.15 K, x1 = 1 | 0.02 | 140
308.15 K, x1 = 0.047 | 3.52 | –
308.15 K, x1 = 0.05 | – | 2.71
308.15 K, x1 = 0.07 | 3.74 | –
308.15 K, x1 = 0.08 | 3.72 | –
308.15 K, x1 = 0.1 | 3.53 | 9.2
308.15 K, x1 = 0.2 | 1.98 | –
308.15 K, x1 = 0.3026 | – | 202
308.15 K, x1 = 0.393 | 0.6 | –
308.15 K, x1 = 0.4011 | – | 550
313.15 K, x1 = 0.01 | 1.47 | 0.57
313.15 K, x1 = 0.02 | 2.9 | –
313.15 K, x1 = 0.047 | 3.7 | –
313.15 K, x1 = 0.05 | – | 2.49
313.15 K, x1 = 0.07 | 3.96 | –
313.15 K, x1 = 0.08 | 3.95 | –
313.15 K, x1 = 0.2 | 2.19 | –
313.15 K, x1 = 0.201 | – | 51
313.15 K, x1 = 0.3026 | – | 163
313.15 K, x1 = 0.393 | 0.73 | –
313.15 K, x1 = 1 | 0.05 | 35.3
318.15 K, x1 = 0.02 | 3.01 | –
318.15 K, x1 = 0.05 | – | 2.39
318.15 K, x1 = 0.07 | 4.16 | –
318.15 K, x1 = 0.08 | 4.17 | –
318.15 K, x1 = 0.1 | 4.02 | 7.7
318.15 K, x1 = 0.201 | – | 45.9
318.15 K, x1 = 0.3026 | – | 142
318.15 K, x1 = 0.393 | 0.86 | –
318.15 K, x1 = 0.4011 | – | 352
318.15 K, x1 = 1 | 0.07 | 19.8
323.15 K, x1 = 0.01 | 1.58 | 0.52
323.15 K, x1 = 0.02 | 3.13 | –
323.15 K, x1 = 0.047 | 4.03 | –
323.15 K, x1 = 0.05 | – | 2.26
323.15 K, x1 = 0.07 | 4.36 | –
323.15 K, x1 = 0.1 | 4.25 | 7
323.15 K, x1 = 0.201 | – | 40.2
323.15 K, x1 = 0.393 | 1 | –
323.15 K, x1 = 0.4011 | – | 288
328.15 K, x1 = 0.01 | 1.65 | 0.48
328.15 K, x1 = 0.02 | 3.25 | –
328.15 K, x1 = 0.047 | 4.19 | –
328.15 K, x1 = 0.05 | – | 2.17
328.15 K, x1 = 0.08 | 4.61 | –
328.15 K, x1 = 0.2 | 2.8 | –
328.15 K, x1 = 0.201 | – | 36.8
328.15 K, x1 = 0.3026 | – | 105
328.15 K, x1 = 0.393 | 1.16 | –
333.15 K, x1 = 0.01 | 1.69 | 0.47
333.15 K, x1 = 0.02 | 3.35 | –
333.15 K, x1 = 0.05 | – | 2.01
333.15 K, x1 = 0.07 | 4.79 | –
333.15 K, x1 = 0.08 | 4.77 | –
333.15 K, x1 = 0.1 | 4.72 | 6.1
333.15 K, x1 = 0.2 | 3 | –
333.15 K, x1 = 0.3026 | – | 90
333.15 K, x1 = 0.393 | 1.33 | –
333.15 K, x1 = 0.4011 | – | 193
333.15 K, x1 = 1 | 0.2 | 6.2

O=S(=O)([N-]S(=O)(=O)C(F)(F)F)C(F)(F)F.[Li+] + CC#N
electrical conductivity [S/m]
Conditions | 298.15 K | 303.15 K | 308.15 K | 313.15 K | 318.15 K | 323.15 K | 328.15 K | 333.15 K
x1 = 0.0207 | 2.67 | – | 2.91 | – | 3.14 | 3.24 | 3.34 | 3.47
x1 = 0.0307 | 3.11 | – | – | 3.47 | 3.58 | 3.7 | 3.81 | 3.92
x1 = 0.0405 | 3.53 | 3.68 | – | 4.01 | – | 4.29 | 4.43 | 4.57
x1 = 0.0501 | 3.93 | 4.1 | – | 4.47 | – | 4.81 | – | 5.16
x1 = 0.0596 | 4.07 | 4.25 | 4.45 | 4.63 | 4.8 | – | – | –
x1 = 0.0688 | 3.93 | 4.12 | 4.33 | 4.53 | 4.7 | 4.87 | 5.05 | 5.24
x1 = 0.0779 | 3.82 | 4.01 | – | – | 4.52 | 4.74 | 4.95 | 5.17
x1 = 0.0868 | 3.65 | 3.84 | 4.05 | 4.26 | 4.45 | 4.63 | 4.82 | 4.99
